Results reported in patent US20030232101A1, “Topical formulations of resorcinols and cannibinoids and methods of use” (Immugen Pharmaceuticals, Inc., priority 2002, published 2003).
“Also recorded” adds a separate entry of the source. Read-outs that look alike come from different tables or passages of the source.

Legend:
HIV-1 = test: HeLa CD4 LTR β-gal HIV-1 attachment assay (Experimental Example 1); type: cell-based; details: for IC50: Human immunodeficiency virus 1, HeLa; for inhibition of HIV attachment/entry: following a 24 h pre-incubation
HIV-1 (96USHIPS7 strain) = test: HIV attachment assay in PBMCs (cell-associated p24); type: cell-based; details: for % Control / pg p24 / Comments: effect on HIV attachment: 15 μM; for Comments: effect on HIV attachment: pretreatment 0, 2, 4, 24 h
Method: ELISA kits were purchased from Coulter Electronics. The assay was performed according to the manufacturer's instructions. Control curves were generated in each assay to accurately quantitate the amount of p24 antigen in each sample. For experiments using cell lysates. Fifty thousand (5×10^4) viable cells were lysed in Coulter ELISA buffer and subjected to 1 round of freeze/thawed to liberate trapped p24 and p24 detected per manufacturers instructions. HIV capsid protein (p24) was quantitated spectrophotometrically at 450 nm using a Molecular Devices Vmax plate reader using a standard curve. Final concentrations were calculated from the optical density values using the Molecular Devices Soft Max software package.
The attachment assay with PBMCs was performed as follows. Briefly, 1×10^6 PHA/IL-2 PBMCs were incubated for 0, 2, 4 and 24 hours with IMG compounds and cannabidiol in polypropylene tubes. A pre-titered amount of HIV-1 (96USHIPS7 strain, obtained from the AIDS Research and Reference Reagent Program ) was added in the presence of compound and incubated for 3 h at 37° C. After incubation the cultures were washed 3 times (400×g, 10 min, 4° C.) with media (1:25,000 dilution of input p24), the cell pellets lysed with p24 lysing buffer (Coulter) and p24 content determined by ELISA.
PBMCs pretreated with compounds for 0, 2, 4, and 24 were incubated with cell-free HIV-1 for 3 h and the excess unbound HIV removed. The assessed the amount of HIV bound to the cell was then assessed by measuring cell-associated p24 content of total cell lysates.

HIV-1 strain RoJo = test: PBMC time of addition assay (RT activity in supernatant at 6 days); type: cell-based; details: for IC50: Human immunodeficiency virus 1, PBMC
Source text: (§1) Human peripheral blood mononuclear cells (PBMCs) from a minimum of 2 donors, that have been blasted with PHA and IL-2, were counted, viability determined by Trypan Blue dye exclusion and mixed in equal ratios. Pooled donors were used to minimize the variability observed between individual donors which results from quantitative and qualitative differences in HIV infection and overall response to the PHA and IL-2 of primary lymphocyte populations. The cells were resuspended at 1×10^6 cells /mL in RPMI 1640 without phenol red supplemented with 15% Fetal Bovine Serum (heat inactivated), 2 mM L-glutamine, 100 U/mL penicillin, 100 μg/mL streptomycin, 10 μg/mL gentamycin and IL-2 (20 U/mL, R&D Systems, Minneapolis, Minn.). Fifty microliters of cells were then distributed to the inner 60 wells of a 96 well round bottom microtiter culture plate in a standard format developed by the Infectious Disease Research department of Southern Research Institute. Each plate contains cell control wells (cells only), virus control wells (cells plus virus), and experimental wells (drug plus cells plus virus). Alternatively, cells were cultured in T25 cm^2 or T75 cm^2 tissue culture flasks at a starting density of 1×10^6 cells per ml. Serially diluted compounds were added to the microtiter plate or tissue culture flask followed by the appropriate pre-titered strain of HIV-1. For virus replication inhibition experiments the HIV-1 strain RoJo was used. This is a low passage presumable subtype B pediatric isolate with a syncytium inducing (SI) phenotype in MT-2 cells isolated by Southern Research Institute personnel. All samples were assayed in triplicate where possible with an accompanying determination of compound toxicity. The final volume per well in the microtiter plates was 200 μL. The final volume in the tissue culture flask varied depending upon experimental design and flask size. Assays were incubated for 6 days in a humidified atmosphere at 37° C., 5% CO^2, after which supernatants were collected, for analysis of RT activity and cell viability by MTS dye reduction. Culture were also examined microscopically, any abnormalities noted, and in the case of tissue culture flasks cell counts and viability determined by Trypan Blue Dye exclusion.
(§2) Time of addition assays were performed with PBMCs in two ways. For both assays, PBMCs were isolated and cultured under the conditions as described above. Time of addition assays were carried out in either a tissue culture flask format (T-75 cm^2) or in microtiter wells. In both cases due to the lack of plastic adherence and heterogeneity of the PBMC population for susceptibility to infection, it was not possible to use complete removal of virus following a timed adsorption to synchronize the infection and limit the assay to a single round of infection. Therefore, serial washing by partial removal of the media was used to reduce the concentration of virus and compound (if required) in the assay. Compound addition in relationship to antiviral activity was either assessed over a short addition interval immediately before or after virus addition or for up to 72 h post infection. For all assays virus replication was assessed at 6 days of culture by determining RT expression in cell-free supernatants. In the tissue culture flask format cells were counted and Trypan Blue Dye exclusion used to monitor compound cytotoxicity. Cell viability in the 96 well microtiter plate format was determined by MTS dye reduction. AZT was used as a positive control.
Reverse transcriptase activity was measured in cell-free supernatants. Tritiated thymidine triphosphate (NEN) (TTP) was resuspended in distilled H2O at 5 Ci/mL. Poly rA and oligo dT were prepared as a stock solution which was kept at −20° C. The RT reaction buffer was prepared fresh on a daily basis and consists of 125 μL 1.0 M EGTA, 125 μL dH2O, 110 μL 10% SDS, 50 μL 1.0 M Tris (pH 7.4), 50 μL 1.0 M DTT, and 40 μL 1.0 M MgCl2. […]

[1] = PBMC cell viability in time of addition assay (MTS / Trypan Blue); type: cell-based, Human; details: human, read-out: TC50
Source text: as §1, §2
(§3) At assay termination the assay plates were stained with the soluble tetrazolium-based dye MTS (CellTiter96® Reagent Promega) to determine cell viability and quantify compound toxicity. MTS is metabolized by the mitochondria enzymes of metabolically active cells to a soluble formazan product, allowing the rapid quantitative analysis cell viability and compound cytotoxicity. […] At termination of the assay 20 μL of MTS reagent was added per well and incubated for 4 h at 37° C. […]

[2] = tested on: peripheral blood mononuclear cells (PBMCs); test: as above; type: cell-based, Human; details: read-out: TC50 (the source's name)
Source text: as §1, §2, §3

[3] = addition prior to infection, pre-treatment 0 h
[4] = addition prior to infection, pre-treatment 2 h
[5] = addition prior to infection, pre-treatment 4 h
[6] = addition prior to infection, pre-treatment 24 h

Row | Compound | IC50 (HIV-1; Experiment 1, pretreat 0 h) [µM] | IC50 (HIV-1; Experiment 1, pretreat 4 h) [µM] | IC50 (HIV-1; Experiment 1, pretreat 24 h) [µM] | IC50 (HIV-1; Experiment 2, pretreat 0 h) [µM] | IC50 (HIV-1; Experiment 2, pretreat 4 h) [µM] | IC50 (HIV-1; Experiment 2, pretreat 24 h) [µM] | inhibition of HIV attachment/entry (HIV-1) | % Control (HIV-1 (96USHIPS7 strain); time 0 h) [%] | pg p24 (HIV-1 (96USHIPS7 strain); time 0 h) [pg] | % Control (HIV-1 (96USHIPS7 strain); time 2 h) [%] | pg p24 (HIV-1 (96USHIPS7 strain); time 2 h) [pg] | % Control (HIV-1 (96USHIPS7 strain); time 4 h) [%] | pg p24 (HIV-1 (96USHIPS7 strain); time 4 h) [pg] | % Control (HIV-1 (96USHIPS7 strain); time 24 h) [%] | pg p24 (HIV-1 (96USHIPS7 strain); time 24 h) [pg] | IC50 (HIV-1 strain RoJo; 4 h, treatment −4 h pre) [µM] | IC50 (HIV-1 strain RoJo; 6 h, treatment 6 h post) [µM] | IC50 (HIV-1 strain RoJo; [3]) [µM] | IC50 (HIV-1 strain RoJo; [4]) [µM] | IC50 (HIV-1 strain RoJo; [5]) [µM] | also measured
1 | Cc1c(O)cc(C(C)(C)CCCC(C)C)cc1O [IMG510, 2-Methyl-5-(1,1,5-trimethylhexyl)resorcinol] | > 50 | > 50 | 0.14 | > 50 | > 50 | 11.5 | consistent inhibition | 91.1 | 350 | 85.7 | 329 | 71.4 | 274 | 88.3 | 339 | 17.7 | 14.4 | 13.4 | 1.4 | 11.5 | β-galactosidase production relative to background (cells alone+compounds) (HIV-1; following 24 h exposure): suppressed β-galactosidase production below background; Comment: transient suppression lost at lower concentrations (HIV-1; pretreat 4 h): transient suppression of virus replication; also recorded: Transient suppression lost with at lower; Comment: suppression of β-galactosidase activity (HIV-1; pretreat 24 h): Suppression of β-galactosidase activity; fold decrease in IC50 (HIV-1 strain RoJo; 2 h pretreatment): 9.5-fold decrease in; IC50 (HIV-1 strain RoJo; [6]): 9.5 µM; IC50 (HIV-1 strain RoJo; treatment at infection): 16.1 µM; CC50 at 6 days ([1]; treatment −4 h pre): > 100 µM; CC50 ([2]; treatment 6 h post): > 100 µM; CC50 ([2]; treatment at infection): > 100 µM
2 | CC(C)=CCCC1(C)CCc2c(O)cc(C(C)(C)CCCC(C)C)cc2O1 (centres unmarked) [IMG508, 3,4-Dihydro-2-methyl-2-(4-methyl-3-pentenyl)-7-(1,1,5-trimethylhexyl)-2H-1-benzopyran-5-ol] | 16 | 10.8 | 7.4 | 0.9 | 11 | 2.6 | consistent inhibition | 81.3 | 312 | 85.4 | 328 | 72.7 | 279 | 111.5 | 428 | 6.2 | 22.5 | 14.2 | 10.4 | 4.1 | β-galactosidase production relative to background (cells alone+compounds) (HIV-1; at all times): suppressed β-galactosidase production below background; Comment: suppression of β-galactosidase activity (HIV-1; pretreat 0 h): Suppression of β-galactosidase activity,; Comment: transient suppression lost at lower concentrations (HIV-1; pretreat 0 h): Transient suppression lost with at lower; Comment: suppression of β-galactosidase activity (HIV-1; pretreat 4 h): Suppression of β-galactosidase activity; Comment: suppression of β-galactosidase activity (HIV-1; pretreat 24 h): Suppression of β-galactosidase activity,; Comment: transient suppression lost at lower concentrations (HIV-1; pretreat 24 h): Transient suppression lost with at lower; Comments: effect on HIV attachment (HIV-1 (96USHIPS7 strain)): No significant effect; virus binding relative to control (HIV-1 (96USHIPS7 strain); pretreated for 24 h): return to control levels of virus binding; fold decrease in IC50 (HIV-1 strain RoJo; 4 h pretreatment): 4-fold decrease in IC50; IC50 (HIV-1 strain RoJo; [6]): 11.9 µM; IC50 (HIV-1 strain RoJo; treatment at infection): 15.7 µM; CC50 at 6 days ([1]; treatment −4 h pre): > 100 µM; CC50 ([2]; treatment 6 h post): > 100 µM; CC50 ([2]; treatment at infection): > 100 µM
3 | COc1cc(C(C)(C)CCCC(C)C)cc(OC)c1OC [IMG507, 1-(1,1,5-Trimethylhexyl)-3,4,5-trimethoxybenzene] | > 50 | > 50 | > 50 | 16 | > 50 | > 50 | not | 83.3 | 320 | 91.4 | 351 | 76.3 | 293 | 95.8 | 368 | 39.5 | 46.1 | 6.9 | 6.1 | 5.3 | β-galactosidase production relative to background (cells alone+compounds) (HIV-1; at all times): suppressed β-galactosidase production below background; transient suppression of virus replication at lower concentrations of compounds (HIV-1; observed consistently, two independent experiments): transient suppression of virus replication; Comment: transient suppression lost at lower concentrations (HIV-1; pretreat 0 h): Transient suppression lost with at lower; Comment: transient suppression lost at lower concentrations (HIV-1; pretreat 4 h): Transient suppression lost with at lower; Comment: transient suppression lost at lower concentrations (HIV-1; pretreat 24 h): Transient suppression t lost with at lower; Comments: effect on HIV attachment (HIV-1 (96USHIPS7 strain)): no significant effect on virus attachment; fold increase in IC50 (HIV-1 strain RoJo; 24 h pretreatment): approximately 2 fold; IC50 (HIV-1 strain RoJo; [6]): 10.8 µM; IC50 (HIV-1 strain RoJo; treatment at infection): 67 µM; CC50 at 6 days ([1]; treatment at infection): > 100 µM; CC50 ([2]; treatment 6 h post): > 100 µM; CC50 ([2]; treatment −4 h pre): > 100 µM
